Results as given in patent US8278100B2, “Lasonolide compounds as reagents for inducing premature chromosome condensation and methods for treating disorders” (The United States of America, as Represented by the …, priority 2008, dated 2012).
“Also recorded” adds a separate entry of the source.

Experiments:
[1] = target: T1, PP1 (Oryctolagus cuniculus, UniProt P62139); assay: In vitro phosphatase activity assay; assay type: biochemical; conditions: compared with Okadaic Acid
T1 construct: purchased Biolabs
Experimental: (§1) The inhibitory effect of active agents on PP2A or PP1 enzyme activity was determined by measuring the generation of free PO4 from the phosphopeptide RRA(pT)VA, using the molybdate-malachite green-phosphate complex assay. The phosphatase assay was performed in a PP2A-specific reaction buffer [50 mM imidazole (pH 7.2), 0.2 mM EGTA, 0.02% 2-mercaptoethanol, 0.1 mg/mL of bovine serum albumin] using 10 μ/M phosphopeptide substrate and 0.03 Units PP2A (Upstate), or in PP1-specific reaction buffer [50 mM HEPES, 2 mM Dithiothreitol, 0.025% Tween-20, 0.1 mM EGT 100 mM NaCl] together with 100 μM phosphopeptide substrate and 0.03 Units PP1 (Biolabs). Different concentrations of active agents were added in the reaction system. After a 20-min incubation at 30° C., molybdate dye was added, and the amount of free phosphate generated was determined from the optical density at 630 nm (VERSAmax, Molecular Device), using a standard curve for free phosphate. Phosphatase activity was defined as picomoles of free PO4 generated per minute per microgram of protein, and phosphatase activity without drug was defined as 100% (FIGS. 3C & 3D).

[2] = target: T2, PP2A (Homo sapiens, UniProt P67775); assay: In vitro phosphatase activity assay; assay type: biochemical; conditions: compared with Okadaic Acid
T2 construct: purchased Upstate
Experimental: as §1

[3] = tested on: MCF-7 cells; assay: BrdU incorporation; assay type: cell-based
Experimental: A number of cells (5×10^5) were pulse-labeled with 50 μmol/L BrdU (Calbiochem, La Jolla, Calif.) for 30 minutes. Cells were collected, fixed in 70% ethanol at 4° C., washed with PBS, resuspended in 3 mL 2 mol/L HCl/0.5% Triton X-100, and left at room temperature for 30 minutes. Cells were spun down after adding 6 mL 0.1 M sodium borate (pH 8.5). Pellets were washed with PBS/0.5% Tween-20 twice, then resuspended in 15 μL FITC-conjuncted anti-BrdU antibody (Becton Dickinson, Franklin Lakes, N.J.). After incubation with the anti-BrdU antibody at room temperature for 60 minutes, pellets were washed once with PBS, and resuspended in 500 μL of PI solution (50 μg/mL PI and 50 μg/mL RNase). Analyses were done with a FACScan flow cytometer (Becton Dickinson, San Jose, Calif.) (FIG. 2B).

[4] = tested on: MDA-MB-231 cells; assay: Transwell migration assay; assay type: cell-based, human; conditions: 6 h
Experimental: The effect of Lasonolide A on the migration of breast cancer MDA-MB-231 cells was determined in a transwell Boyden Chamber (Costar, Mass.) using a polycarbonate filter with a pore size of […], which was coated with 0.2% gelatin, balancing with gelatin at 37° C. for 1 h, then removal of the gelatin and covering with DMEM without serum overnight at 37° C. In the standard assay, after removing medium, 0.1 mL of cell suspension (1×10^5 cells/ml, in serum-free medium) with Lasonolide A or 0.1% DMSO (v/v) was added to the upper compartment of the chamber. The lower compartment contained 0.6 mL of DMEM medium supplemented with 20% serum. After incubation for 6 h at 37° C., the filter was removed and fixed with ethanol. Cells remaining on the upper surface of the filter (non-migrated) were scraped gently. Then, migrated cells on the lower surface of the filter were stained with 0.1% crystal violet and taken photographs under microscope (FIG. 6C).

[5] = tested on: MCF-7 cells; assay: Cell cycle analysis; assay type: cell-based; conditions: 24 h treatment
Experimental: (§2) After treatment, cells were collected, washed twice with ice-cold PBS, and fixed overnight with 70% precooled (−20° C.) ethanol. Fixed cells were resuspended in PBS containing 0.02 mg/mL RNase A (Roche, USA) and incubated at 37° C. for 15 min. Next, the cells were stained with 0.01 mg/mL propidium iodide (Sigma) in the dark at room temperature for 10 min. The DNA content was analyzed by flow cytometry using a FACSCalibur (Becton Dickinson, Sunnyvale, Calif.) with Cellquest and Modfit LT3.0 software (Becton Dickinson) (FIGS. 1D & 2A).

[6] = tested on: HCT 116 cells; assay: Cell cycle analysis; assay type: cell-based; conditions: 24 h treatment
Experimental: as §2

[7] = tested on: HT 29 cells; assay: Cell cycle analysis; assay type: cell-based; conditions: 24 h treatment
Experimental: as §2

[8] = tested on: actin network in MDA-MB-231 cells; assay: Actin staining with phalloidin; assay type: cell-based, human
Experimental: Cells were fixed with 4% paraformaldehyde and permeabilized with PBS containing 0.1% Triton X-100. After blocking with 1% bovine serum albumin for 30 min. Cells were incubated with Alexa Fluor 488-conjugated phalloidin (Molecular Probes) to stain actin stress fibers.

[9] = tested on: MDA-MB-231 cells; assay: Cell cycle analysis; assay type: cell-based, human; conditions: 24 h treatment
Experimental: as §2

[10] = tested on: CA46 cells; assay: Cell cycle analysis; assay type: cell-based, human; conditions: 24 h treatment
Experimental: as §2

T2 sequence (P67775 whole entry): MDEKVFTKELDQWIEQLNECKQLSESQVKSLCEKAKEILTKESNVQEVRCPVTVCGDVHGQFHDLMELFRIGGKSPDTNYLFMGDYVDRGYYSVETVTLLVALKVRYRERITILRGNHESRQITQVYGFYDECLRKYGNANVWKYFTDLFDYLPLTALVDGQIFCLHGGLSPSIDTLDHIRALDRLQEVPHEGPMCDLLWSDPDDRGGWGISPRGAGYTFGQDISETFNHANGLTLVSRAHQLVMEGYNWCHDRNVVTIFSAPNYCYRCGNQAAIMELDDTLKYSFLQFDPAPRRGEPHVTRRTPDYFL
T2 sequence (P30153 2-589 partner limits assumed): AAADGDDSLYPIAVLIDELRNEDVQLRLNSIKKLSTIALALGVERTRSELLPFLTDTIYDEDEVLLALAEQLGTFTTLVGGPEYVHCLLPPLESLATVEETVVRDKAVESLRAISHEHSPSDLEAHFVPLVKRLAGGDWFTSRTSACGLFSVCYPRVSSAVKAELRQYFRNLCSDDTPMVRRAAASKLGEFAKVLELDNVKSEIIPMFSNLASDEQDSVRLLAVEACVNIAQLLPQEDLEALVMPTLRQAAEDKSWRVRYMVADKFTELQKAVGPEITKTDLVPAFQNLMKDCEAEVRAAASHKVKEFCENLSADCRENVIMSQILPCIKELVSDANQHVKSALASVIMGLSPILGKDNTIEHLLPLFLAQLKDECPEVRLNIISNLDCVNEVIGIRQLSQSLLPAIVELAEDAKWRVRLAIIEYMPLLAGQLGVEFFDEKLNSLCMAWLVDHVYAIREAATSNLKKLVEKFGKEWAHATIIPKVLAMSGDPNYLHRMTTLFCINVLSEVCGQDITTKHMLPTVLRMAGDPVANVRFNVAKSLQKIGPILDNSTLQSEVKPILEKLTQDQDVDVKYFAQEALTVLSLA
T1 sequence (P62139 whole entry): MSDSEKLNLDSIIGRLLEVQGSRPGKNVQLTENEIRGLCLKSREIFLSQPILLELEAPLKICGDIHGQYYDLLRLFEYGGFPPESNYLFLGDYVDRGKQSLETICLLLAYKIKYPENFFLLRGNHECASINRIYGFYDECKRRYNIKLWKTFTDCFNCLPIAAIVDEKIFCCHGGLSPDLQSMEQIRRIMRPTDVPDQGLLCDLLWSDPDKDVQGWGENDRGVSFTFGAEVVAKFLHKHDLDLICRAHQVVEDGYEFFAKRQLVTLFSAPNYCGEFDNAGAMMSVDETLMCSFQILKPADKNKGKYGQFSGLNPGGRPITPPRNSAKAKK

In the case of `C=C(CCC(C)C)COC(=O)[C@H](O)C/C=C\C[C@@H]1O[C@@H]2/C=C/C/C=C/C(C)=C\[C@H]3O[C@@H](C/C=C/C=C/C(=O)O[C@H](C2)[C@@]1(C)CO)C[C@H](O)[C@H]3C` [Lasonolide A], the “inhibitory effect on PP1” value [1] was “weaker inhibitory effect”, the “inhibitory effect on PP2A” value [2] was “weaker inhibitory effect” and the “DNA replication (BrdU incorporation)” value [3] was “decelerated DNA replication”. For the same compound, the cell migration [4] was “inhibited migration”, the cell cycle arrest [5] was “G2/M phase arrest” and the cell cycle arrest [6] was “G2/M phase arrest”. The cell cycle arrest [7] was “G2/M phase arrest”, the “actin network / cytoskeleton” value [8] was “reorganized the cytoskeleton system; also recorded: reorganized the actin network” and the cell cycle arrest [9] was “induced cell cycle arrest at G2/M phase”. The cell cycle arrest [10] was “induced cell cycle arrest at G2/M phase”.
